Measurements taken from ChEMBL document CHEMBL1132355, “Novel arylpyrazino[2,3-c][1,2,6]thiadiazine 2,2-dioxides as platelet aggregation inhibitors. 2. Optimization by quantitative structure-activity relationships” (J Med Chem, 1999).

Test: Inhibition of platelet aggregation (rabbit platelet-rich plasma),induced by arachidonic acid, (100% inhibitory response)
Conditions: Oryctolagus cuniculus
`CN1c2nc(-c3ccco3)c(-c3ccco3)nc2C(N)=NS1(=O)=O` gave an EC100 of 1 µg/mL.
In the case of `CCOC(=O)CN1c2nc(-c3ccccc3)c(-c3ccccc3)nc2C(N)=NS1(=O)=O`, the EC100 is reported as 0.1 µg/mL.
Molecule `CC(C)(C)OC(=O)CN1c2nc(-c3ccccc3)c(-c3ccccc3)nc2C(N)=NS1(=O)=O` has an EC100 of 1 µg/mL.
`COc1nc2c(nc1-c1ccccc1)C(N)=NS(=O)(=O)N2C` gave an EC100 of 0.1 µg/mL.
For `CCOC(=O)CN1c2nc(-c3ccccc3)cnc2C(N)=NS1(=O)=O`, the EC100 was > 10 µg/mL.
Molecule `CCN1c2ncc(-c3ccccc3)nc2C(N)=NS1(=O)=O` has an EC100 of 1 µg/mL.
In the case of `CN1c2ncc(-c3ccccc3)nc2C(N)=NS1(=O)=O`, the EC100 is reported as 0.3 µg/mL.
Molecule `CN1c2nc(-c3ccccn3)c(-c3ccccn3)nc2C(N)=NS1(=O)=O` has an EC100 of 3 µg/mL.
`CCOc1nc2c(nc1-c1ccccc1)C(N)=NS(=O)(=O)N2C` gave an EC100 of 0.3 µg/mL.
With `CCN1c2nc(-c3ccccc3)c(Cl)nc2C(N)=NS1(=O)=O` the EC100 was 10 µg/mL.
`CCN1c2nc(-c3ccccc3)c(Br)nc2C(N)=NS1(=O)=O` showed an EC100 of 1 µg/mL.
Molecule `CCN1c2nc(-c3ccc(Cl)cc3)c(-c3ccc(Cl)cc3)nc2C(N)=NS1(=O)=O` has an EC100 of 3 µg/mL.
For `CCN1c2nc(-c3ccccc3)c(-c3ccccc3)nc2C(N)=NS1(=O)=O`, the EC100 was 0.3 µg/mL.
`NC1=NS(=O)(=O)N(Cc2ccccc2)c2nc(-c3ccccc3)c(-c3ccccc3)nc21` showed an EC100 of 3 µg/mL.
With `CCN1c2nc(C)c(-c3ccccc3)nc2C(N)=NS1(=O)=O` the EC100 was 1 µg/mL.
In the case of `CCN1c2nc(-c3ccccc3)cnc2C(N)=NS1(=O)=O`, the EC100 is reported as > 10 µg/mL.
In the case of `CCOC(=O)CN1c2nc(-c3ccccc3)c(Br)nc2C(N)=NS1(=O)=O`, the EC100 is reported as 10 µg/mL.
In the case of `Cc1ccc(-c2cnc3c(n2)N(C)S(=O)(=O)N=C3N)cc1`, the EC100 is reported as > 10 µg/mL.
With `COc1cccc(-c2nc3c(nc2-c2cccc(OC)c2)N(C)S(=O)(=O)N=C3N)c1` the EC100 was > 10 µg/mL.
`CCN1c2nc(-c3cccs3)c(-c3cccs3)nc2C(N)=NS1(=O)=O` showed an EC100 of 3 µg/mL.
With `CCN1c2nc(-c3ccccc3)c(C)nc2C(N)=NS1(=O)=O` the EC100 was 1 µg/mL.
Molecule `CN1c2nc(-c3ccc(F)cc3)c(-c3ccc(F)cc3)nc2C(N)=NS1(=O)=O` has an EC100 of 0.3 µg/mL.
`CN1c2ncc(-c3ccccc3F)nc2C(N)=NS1(=O)=O` gave an EC100 of 0.03 µg/mL.
Molecule `CN1c2nc(-c3ccc(Br)cc3)c(-c3ccc(Br)cc3)nc2C(N)=NS1(=O)=O` has an EC100 of 1 µg/mL.
For `NC(=O)CN1c2nc(-c3ccccc3)c(-c3ccccc3)nc2C(N)=NS1(=O)=O`, the EC100 was 3 µg/mL.
For `CCOc1nc2c(nc1-c1ccc(Cl)cc1)C(N)=NS(=O)(=O)N2CC`, the EC100 was 10 µg/mL.
`COc1ccc(-c2nc3c(nc2-c2ccc(OC)cc2)N(C)S(=O)(=O)N=C3N)cc1` showed an EC100 of 0.001 µg/mL.
